Experimental data from paper PMC4928820 (Molecular Pharmaceutics, 2015).

Experiments:
[1] = water-saturated tricaprylin compared to dry tricaprylin ref 34; cited from earlier work
[2] = format: physicochemical; settings: 37 °C, mean ± SD, triplicate; for Thermodynamic solubility in Carbitol: cosolvent; for Thermodynamic solubility in Maisine 35-1: long-chain mono-; for Thermodynamic solubility in Maisine 35-1 / Thermodynamic solubility in Capmul MCM EP: di-, triglyceride; for Thermodynamic solubility in Capmul MCM EP: medium-chain mono-; for Thermodynamic solubility in Cremophor EL: surfactant (≤3% w/w water)

## CNC(=O)c1ccccc1 [N-methylbenzamide]
[1]
  Increase of solubility: more than 50%

## COc1cc(C)c(/C=C/C(C)=C/C=C/C(C)=C/C(=O)O)c(C)c1C [acitretin]
[2]
  Thermodynamic solubility in Carbitol: 3.52 ± 0.20 mg/g
  Thermodynamic solubility in Maisine 35-1: 0.62 ± 0.06 mg/g
  Thermodynamic solubility in Capmul MCM EP: 1.54 ± 0.10 mg/g
  Thermodynamic solubility in Cremophor EL: 2.85 ± 0.14 mg/g

## CCCSc1ccc2nc(NC(=O)OC)[nH]c2c1 [albendazole]
[2]
  Thermodynamic solubility in Carbitol: 5.99 ± 0.19 mg/g
  Thermodynamic solubility in Maisine 35-1: 3.86 ± 0.21 mg/g
  Thermodynamic solubility in Capmul MCM EP: 3.17 ± 0.10 mg/g
  Thermodynamic solubility in Cremophor EL: 2.75 ± 0.14 mg/g

## CC(C)(Oc1ccc(CCNC(=O)c2ccc(Cl)cc2)cc1)C(=O)O [bezafibrate]
[2]
  Thermodynamic solubility in Carbitol: 43.0 ± 1.83 mg/g
  Thermodynamic solubility in Maisine 35-1: 1.55 ± 0.05 mg/g
  Thermodynamic solubility in Capmul MCM EP: 6.36 ± 0.26 mg/g
  Thermodynamic solubility in Cremophor EL: 37.9 ± 5.23 mg/g

## CCOc1nc2cccc(C(=O)OC(C)OC(=O)OC3CCCCC3)c2n1Cc1ccc(-c2ccccc2-c2nnn[nH]2)cc1 (stereo not drawn) [candesartan cilexetil]
[2]
  Thermodynamic solubility in Carbitol: 77.0 ± 2.04 mg/g
  Thermodynamic solubility in Maisine 35-1: 1.99 ± 0.19 mg/g
  Thermodynamic solubility in Capmul MCM EP: 9.07 ± 0.38 mg/g
  Thermodynamic solubility in Cremophor EL: 26.4 ± 1.46 mg/g

## CCOc1nc2cccc(C(=O)O)c2n1Cc1ccc(-c2ccccc2-c2nnn[nH]2)cc1 [candesartan]
[2]
  Thermodynamic solubility in Carbitol: 20.5 ± 1.26 mg/g
  Thermodynamic solubility in Maisine 35-1: ≤0.41 mg/g
  Thermodynamic solubility in Capmul MCM EP: 3.19 ± 0.14 mg/g
  Thermodynamic solubility in Cremophor EL: 11.3 ± 0.67 mg/g

## NC(=O)N1c2ccccc2C=Cc2ccccc21 [carbamazepine]
[2]
  Thermodynamic solubility in Carbitol: 82.9 ± 1.80 mg/g
  Thermodynamic solubility in Maisine 35-1: 30.0 ± 1.66 mg/g
  Thermodynamic solubility in Capmul MCM EP: 55.5 ± 3.23 mg/g
  Thermodynamic solubility in Cremophor EL: 34.5 ± 1.06 mg/g

## CC(C)/N=c1\cc2n(-c3ccc(Cl)cc3)c3ccccc3nc-2cc1Nc1ccc(Cl)cc1 [clofazimine]
[2]
  Thermodynamic solubility in Carbitol: 22.8 ± 0.54 mg/g
  Thermodynamic solubility in Maisine 35-1: 11.7 ± 0.24 mg/g
  Thermodynamic solubility in Capmul MCM EP: 16.3 ± 0.44 mg/g
  Thermodynamic solubility in Cremophor EL: 15.9 ± 0.83 mg/g

## Clc1ccccc1C(c1ccccc1)(c1ccccc1)n1ccnc1 [clotrimazole]
[2]
  Thermodynamic solubility in Carbitol: 135.0 ± 3.57 mg/g
  Thermodynamic solubility in Maisine 35-1: 75.4 ± 8.95 mg/g
  Thermodynamic solubility in Capmul MCM EP: 136.7 ± 5.94 mg/g
  Thermodynamic solubility in Cremophor EL: 44.1 ± 3.01 mg/g

## O=C(O)c1cc(-c2ccc(F)cc2F)ccc1O [diflunisal]
[2]
  Thermodynamic solubility in Carbitol: 286.3 ± 13.4 mg/g
  Thermodynamic solubility in Maisine 35-1: 31.6 ± 0.99 mg/g
  Thermodynamic solubility in Capmul MCM EP: 53.4 ± 1.29 mg/g
  Thermodynamic solubility in Cremophor EL: 157.9 ± 6.54 mg/g

## OCCN(CCO)c1nc(N2CCCCC2)c2nc(N(CCO)CCO)nc(N3CCCCC3)c2n1 [dipyridamole]
[2]
  Thermodynamic solubility in Carbitol: 43.1 ± 2.40 mg/g
  Thermodynamic solubility in Maisine 35-1: 3.02 ± 0.16 mg/g
  Thermodynamic solubility in Capmul MCM EP: 12.3 ± 0.36 mg/g
  Thermodynamic solubility in Cremophor EL: 9.57 ± 0.29 mg/g

## CCN(CC)C(=S)SSC(=S)N(CC)CC [disulfiram]
[2]
  Thermodynamic solubility in Carbitol: 162.6 ± 8.46 mg/g
  Thermodynamic solubility in Maisine 35-1: 49.0 ± 3.05 mg/g
  Thermodynamic solubility in Capmul MCM EP: 47.2 ± 2.05 mg/g
  Thermodynamic solubility in Cremophor EL: 88.8 ± 3.66 mg/g

## C#C[C@]1(O)CC[C@H]2[C@@H]3CCc4cc(O)ccc4[C@H]3CC[C@@]21C [ethinylestradiol]
[2]
  Thermodynamic solubility in Carbitol: 247.1 ± 8.93 mg/g
  Thermodynamic solubility in Maisine 35-1: 22.1 ± 1.83 mg/g
  Thermodynamic solubility in Capmul MCM EP: 56.3 ± 1.76 mg/g
  Thermodynamic solubility in Cremophor EL: 163.9 ± 10.1 mg/g

## CCOC(=O)C1=C(C)NC(C)=C(C(=O)OC)C1c1cccc(Cl)c1Cl (stereo not drawn) [felodipine]
[2]
  Thermodynamic solubility in Carbitol: 217.2 ± 16.0 mg/g
  Thermodynamic solubility in Maisine 35-1: 37.7 ± 1.37 mg/g
  Thermodynamic solubility in Capmul MCM EP: 80.2 ± 2.22 mg/g
  Thermodynamic solubility in Cremophor EL: 125.1 ± 6.23 mg/g

## COC(=O)Nc1nc2ccc(Sc3ccccc3)cc2[nH]1 [fenbendazole]
[2]
  Thermodynamic solubility in Carbitol: 4.13 ± 0.28 mg/g
  Thermodynamic solubility in Maisine 35-1: 0.69 ± 0.11 mg/g
  Thermodynamic solubility in Capmul MCM EP: 1.28 ± 0.09 mg/g
  Thermodynamic solubility in Cremophor EL: 2.07 ± 0.09 mg/g

## CC(C)(Oc1ccc(C(=O)c2ccc(Cl)cc2)cc1)C(=O)O [fenofibric acid]
[2]
  Thermodynamic solubility in Carbitol: 92.8 ± 4.81 mg/g
  Thermodynamic solubility in Maisine 35-1: 7.38 ± 0.22 mg/g
  Thermodynamic solubility in Capmul MCM EP: 14.5 ± 0.50 mg/g
  Thermodynamic solubility in Cremophor EL: 58.4 ± 2.59 mg/g

## COc1ccc(Cl)cc1C(=O)NCCc1ccc(S(=O)(=O)NC(=O)NC2CCCCC2)cc1 [glibenclamide]
[2]
  Thermodynamic solubility in Carbitol: 21.1 ± 0.46 mg/g
  Thermodynamic solubility in Maisine 35-1: 0.52 ± 0.14 mg/g
  Thermodynamic solubility in Capmul MCM EP: 5.49 ± 0.26 mg/g
  Thermodynamic solubility in Cremophor EL: 11.2 ± 1.01 mg/g

## COC1=CC(=O)C[C@@H](C)[C@]12Oc1c(Cl)c(OC)cc(OC)c1C2=O [griseofulvin]
[2]
  Thermodynamic solubility in Carbitol: 18.9 ± 0.99 mg/g
  Thermodynamic solubility in Maisine 35-1: 2.43 ± 0.05 mg/g
  Thermodynamic solubility in Capmul MCM EP: 5.56 ± 0.21 mg/g
  Thermodynamic solubility in Cremophor EL: 9.70 ± 0.36 mg/g

## CCCCN(CCCC)CCC(O)c1cc2c(Cl)cc(Cl)cc2c2cc(C(F)(F)F)ccc12 (stereo not drawn) [halofantrine]
[2]
  Thermodynamic solubility in Carbitol: 79.3 ± 7.90 mg/g
  Thermodynamic solubility in Maisine 35-1: 71.2 ± 4.58 mg/g
  Thermodynamic solubility in Capmul MCM EP: 52.6 ± 3.01 mg/g
  Thermodynamic solubility in Cremophor EL: 27.9 ± 0.79 mg/g

## O=C(CCCN1CCC(O)(c2ccc(Cl)cc2)CC1)c1ccc(F)cc1 [haloperidol]
[2]
  Thermodynamic solubility in Carbitol: 27.2 ± 1.82 mg/g
  Thermodynamic solubility in Maisine 35-1: 3.57 ± 0.16 mg/g
  Thermodynamic solubility in Capmul MCM EP: 13.4 ± 0.51 mg/g
  Thermodynamic solubility in Cremophor EL: 11.3 ± 0.82 mg/g

## COc1ccc2c(c1)c(CC(=O)O)c(C)n2C(=O)c1ccc(Cl)cc1 [indomethacin]
[2]
  Thermodynamic solubility in Carbitol: 187.4 ± 7.08 mg/g
  Thermodynamic solubility in Maisine 35-1: 13.0 ± 0.88 mg/g
  Thermodynamic solubility in Capmul MCM EP: 28.6 ± 1.30 mg/g
  Thermodynamic solubility in Cremophor EL: 71.6 ± 4.57 mg/g

## CCC(C)n1ncn(-c2ccc(N3CCN(c4ccc(OCC5COC(Cn6cncn6)(c6ccc(Cl)cc6Cl)O5)cc4)CC3)cc2)c1=O (stereo not drawn) [itraconazole]
[2]
  Thermodynamic solubility in Carbitol: 6.30 ± 0.55 mg/g
  Thermodynamic solubility in Maisine 35-1: 2.26 ± 0.16 mg/g
  Thermodynamic solubility in Capmul MCM EP: 5.60 ± 0.67 mg/g
  Thermodynamic solubility in Cremophor EL: 1.92 ± 0.29 mg/g

## Cc1cccc(Nc2ccccc2C(=O)O)c1C [mefenamic acid]
[2]
  Thermodynamic solubility in Carbitol: 43.6 ± 1.52 mg/g
  Thermodynamic solubility in Maisine 35-1: 5.38 ± 0.40 mg/g
  Thermodynamic solubility in Capmul MCM EP: 9.63 ± 0.40 mg/g
  Thermodynamic solubility in Cremophor EL: 30.7 ± 0.89 mg/g

## O=C(Nc1ccc([N+](=O)[O-])cc1Cl)c1cc(Cl)ccc1O [niclosamide]
[2]
  Thermodynamic solubility in Carbitol: 49.6 ± 2.62 mg/g
  Thermodynamic solubility in Maisine 35-1: 3.97 ± 0.19 mg/g
  Thermodynamic solubility in Capmul MCM EP: 10.1 ± 0.40 mg/g
  Thermodynamic solubility in Cremophor EL: 44.1 ± 1.75 mg/g

## COc1ccc2c(c1OC)C(=O)O[C@@H]2[C@H]1c2c(cc3c(c2OC)OCO3)CCN1C [noscapine]
[2]
  Thermodynamic solubility in Carbitol: 25.6 ± 1.00 mg/g
  Thermodynamic solubility in Maisine 35-1: 5.36 ± 0.61 mg/g
  Thermodynamic solubility in Capmul MCM EP: 7.23 ± 0.20 mg/g
  Thermodynamic solubility in Cremophor EL: 12.3 ± 0.25 mg/g

## O=C(C1CCCCC1)N1CC(=O)N2CCc3ccccc3C2C1 (stereo not drawn) [praziquantel]
[2]
  Thermodynamic solubility in Carbitol: 116.9 ± 14.8 mg/g
  Thermodynamic solubility in Maisine 35-1: 85.9 ± 5.32 mg/g
  Thermodynamic solubility in Capmul MCM EP: 184.9 ± 12.4 mg/g
  Thermodynamic solubility in Cremophor EL: 45.4 ± 3.51 mg/g

## CC(=O)[C@H]1CC[C@H]2[C@@H]3CCC4=CC(=O)CC[C@]4(C)[C@H]3CC[C@]12C [progesterone]
[2]
  Thermodynamic solubility in Carbitol: 67.02 ± 1.36 mg/g
  Thermodynamic solubility in Maisine 35-1: 66.2 ± 4.87 mg/g
  Thermodynamic solubility in Capmul MCM EP: 99.1 ± 2.94 mg/g
  Thermodynamic solubility in Cremophor EL: 41.1 ± 1.27 mg/g

## CC(C)(C)NC(=O)[C@@H]1C[C@@H]2CCCC[C@@H]2CN1C[C@@H](O)[C@H](Cc1ccccc1)NC(=O)[C@H](CC(N)=O)NC(=O)c1ccc2ccccc2n1 [saquinavir]
[2]
  Thermodynamic solubility in Carbitol: ≥317 mg/g
  Thermodynamic solubility in Maisine 35-1: ≥123 mg/g
  Thermodynamic solubility in Capmul MCM EP: ≥288 mg/g

## O=C(O)c1cc(/N=N/c2ccc(S(=O)(=O)Nc3ccccn3)cc2)ccc1O [sulfasalazine]
[2]
  Thermodynamic solubility in Carbitol: 16.4 ± 0.72 mg/g
  Thermodynamic solubility in Maisine 35-1: 0.16 ± 0.02 mg/g
  Thermodynamic solubility in Capmul MCM EP: 3.16 ± 0.06 mg/g
  Thermodynamic solubility in Cremophor EL: 13.1 ± 1.02 mg/g

## Cc1c(Cl)cccc1Nc1ccccc1C(=O)O [tolfenamic acid]
[2]
  Thermodynamic solubility in Carbitol: 85.5 ± 4.29 mg/g
  Thermodynamic solubility in Maisine 35-1: 14.1 ± 1.18 mg/g
  Thermodynamic solubility in Capmul MCM EP: 26.0 ± 1.45 mg/g
  Thermodynamic solubility in Cremophor EL: 70.6 ± 3.87 mg/g

## Cc1cc(-n2c(=O)[nH]c(=O)n(C)c2=O)ccc1Oc1ccc(SC(F)(F)F)cc1 [toltrazuril]
[2]
  Thermodynamic solubility in Carbitol: 50.2 ± 2.47 mg/g
  Thermodynamic solubility in Maisine 35-1: 7.90 ± 1.03 mg/g
  Thermodynamic solubility in Capmul MCM EP: 11.8 ± 0.59 mg/g
  Thermodynamic solubility in Cremophor EL: 19.7 ± 3.11 mg/g
